# Source: US20070243273A1, “Reduction of the Deleterious Effects of Tobacco Smoking” (SaviPu Pharmaceuticals, priority 2006, published 2007)
# Tests used:
# [1] = tested on: benzo[a]pyrene-induced transformation of RTE cells; assay: rat tracheal epithelial (RTE) cell focus inhibition assay; assay type: cell-based
# Experimental: (§1) The rat tracheal epithelial (RTE) cell focus inhibition assay was used to identify potential chemopreventive activity of tanshinone IIA. Tanshinone IIA was evaluated for its ability to inhibit benzo[a]pyrene-induced transformation of RTE cells. Tracheal epithelial cells were isolated from 8-12 week-old male Fisher 344 rats and plated on collagen coated dishes. Initially, a nontoxic concentration of tanshinone IIA was determined by treating RTE cells with a range of 1.5 nM to 3000 nM of tanshinone IIA. […] About 10% cells survived at a concentration of 1500 nM. Freshly isolated RTE cells were exposed to benzo[a]pyrene alone or in combination with tanshinone IIA. Benzo[a]pyrene was washed out after an exposure of 24 h. The maximal non-toxic concentration and four half log concentrations of tanshinone IIA (300 nM to 3 nM) were used for the chemopreventive assay. After 30 days in culture, transformed foci were scored and inhibition was quantitated. […] A positive control of retinoic acid inhibited the transformation frequency by 50% at 1 nM.
# RTE cells = assay: toxicity of tanshinone IIA to RTE cells; assay type: cell-based, rat
# Experimental: as §1
smiles,measurement,setting,value
Cc1coc2c1C(=O)C(=O)c1c-2ccc2c1CCCC2(C)C [Tanshinone IIA],prevention of benzo[a]pyrene-induced transformation of rat tracheal epithelial cells,[1]; 3 nM,totally prevented
same,inhibition of transformation frequency,"[1]; each dose level, 300 nM to 3 nM, benzo[a]pyrene exposure 24 h, foci scored after 30 days in culture",complete inhibition
same,cells survived,RTE cells; 1500 nM,About 10%
same,concentration found nontoxic to RTE cells,RTE cells; tested range 1.5 nM to 3000 nM,≤ 150 nM
same,toxicity to the cells,RTE cells; very low concentrations (3 nM),nontoxic
"CC1=C(/C=C/C(C)=C/C=C/C(C)=C/C(=O)O)C(C)(C)CCC1 [retinoic acid, reference compound]",inhibition at 0.001 µM,"[1]; Rattus norvegicus, 1 nM, positive control, read-out: inhibition of transformation frequency",50%
